Patent US20060045953A1 (priority 2004, published 2006)
Like-named read-outs stand apart in the source and are kept apart here.

Molecular target: T1, hT1R2/hT1R3 sweet receptor (Homo sapiens, UniProt Q7RTX0+Q8TE23)
T1 construct: expressed in transfected cells; host or cells: HEK293 derivative stably expressing Gα15, clone S-9
T1 sequence (Q8TE23 20-839): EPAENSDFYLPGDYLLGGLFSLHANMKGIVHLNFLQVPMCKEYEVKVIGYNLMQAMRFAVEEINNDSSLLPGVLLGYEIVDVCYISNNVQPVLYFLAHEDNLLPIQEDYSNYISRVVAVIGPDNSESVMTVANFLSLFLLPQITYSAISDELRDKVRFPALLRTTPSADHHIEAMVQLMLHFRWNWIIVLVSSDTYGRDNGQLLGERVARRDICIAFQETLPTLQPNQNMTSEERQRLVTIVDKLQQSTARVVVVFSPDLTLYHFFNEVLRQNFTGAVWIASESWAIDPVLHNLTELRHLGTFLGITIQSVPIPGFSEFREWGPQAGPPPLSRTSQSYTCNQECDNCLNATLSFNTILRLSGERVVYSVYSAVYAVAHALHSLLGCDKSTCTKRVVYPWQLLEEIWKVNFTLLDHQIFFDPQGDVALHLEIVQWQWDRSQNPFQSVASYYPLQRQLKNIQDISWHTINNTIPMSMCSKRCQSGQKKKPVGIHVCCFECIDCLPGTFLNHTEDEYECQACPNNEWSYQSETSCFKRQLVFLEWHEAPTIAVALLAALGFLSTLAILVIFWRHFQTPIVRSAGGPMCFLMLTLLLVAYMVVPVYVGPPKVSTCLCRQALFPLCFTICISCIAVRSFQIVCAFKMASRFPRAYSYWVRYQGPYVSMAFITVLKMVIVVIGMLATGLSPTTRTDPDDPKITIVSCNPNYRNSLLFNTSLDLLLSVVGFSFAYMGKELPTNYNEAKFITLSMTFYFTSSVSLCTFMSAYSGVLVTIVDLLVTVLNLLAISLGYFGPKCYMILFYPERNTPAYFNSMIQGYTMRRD
T1 sequence (Q7RTX0 21-852): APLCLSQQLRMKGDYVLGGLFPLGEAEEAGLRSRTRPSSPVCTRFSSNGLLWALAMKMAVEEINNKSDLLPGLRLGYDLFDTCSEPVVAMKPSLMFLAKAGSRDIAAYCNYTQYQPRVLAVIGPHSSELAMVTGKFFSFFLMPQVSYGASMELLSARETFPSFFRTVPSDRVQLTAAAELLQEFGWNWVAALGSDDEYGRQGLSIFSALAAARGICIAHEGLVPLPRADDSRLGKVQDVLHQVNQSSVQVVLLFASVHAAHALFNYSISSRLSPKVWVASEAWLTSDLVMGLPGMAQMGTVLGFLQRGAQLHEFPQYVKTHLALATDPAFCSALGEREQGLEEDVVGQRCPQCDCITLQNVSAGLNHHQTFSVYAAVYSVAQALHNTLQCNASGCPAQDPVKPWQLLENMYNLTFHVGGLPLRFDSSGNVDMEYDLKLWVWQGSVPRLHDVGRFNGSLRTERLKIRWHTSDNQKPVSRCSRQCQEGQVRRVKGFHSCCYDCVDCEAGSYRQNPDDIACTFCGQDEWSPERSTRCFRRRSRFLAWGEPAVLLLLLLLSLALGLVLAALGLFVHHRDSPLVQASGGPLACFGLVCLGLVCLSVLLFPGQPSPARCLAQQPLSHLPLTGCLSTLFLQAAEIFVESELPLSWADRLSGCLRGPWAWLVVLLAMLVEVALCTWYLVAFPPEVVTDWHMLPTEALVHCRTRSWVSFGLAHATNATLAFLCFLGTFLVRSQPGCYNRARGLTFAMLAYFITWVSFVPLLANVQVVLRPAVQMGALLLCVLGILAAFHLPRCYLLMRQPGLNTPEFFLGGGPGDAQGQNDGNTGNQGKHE
Assay: In vitro hT1R2/hT1R3 sweet taste receptor activation assay (FLIPR, dose response)
Format: cell-based
Procedure: Activity was determined using an automated fluorometric imaging assay on a FLIPR instrument (Fluorometric Intensity Plate Reader, Molecular Devices, Sunnyvale, Calif.) (designated FLIPR assay). […] S-9 cells were grown for 24 hours at 37° C. S-9 cells were then loaded with the calcium dye Fluo-3AM (Molecular Probes, Eugene, Oreg.), 4 µM in a phosphate buffered saline (D-PBS) (Invitrogen, Carlsbad, Calif.), for 1 hour at room temperature. After replacement with 25 µl D-PBS, stimulation was performed in the FLIPR instrument and at room temperature by the addition of 25 µl D-PBS supplemented with different stimuli at concentrations corresponding to twice the desired final level.
For dose-responses analysis, stimuli were presented in duplicates at 10 different concentrations ranging from 60 nM to 30 µM. Activities were normalized to the response obtained with 400 mM D-fructose, a concentration that elicits maximum receptor response. EC50s were determined using a non-linear regression algorithm (using a Senomyx, Inc. software), where the Hill slope, bottom asymptotes and top asymptotes were allow to vary.

[1] = read-out: EC50 for activation of a hT1R2/hT1R3 sweet receptor expressed in an HEK293 cell line
[2] = Table E, Sweet Enhancer Amides, read-out: Sweet EC50

In the case of `Cc1cc(Cl)ccc1NC(=O)N1Cc2ccccc2C1` [Example 172, N-(4-chloro-2-methylphenyl)isoindoline-2-carboxamide], the EC50 [1] is reported as 0.89 µM.
Work on `CC1CCCCC1NC(=O)c1ccc(F)c(C(F)(F)F)c1` (stereo not shown) [Example E32, 4-fluoro-N-(2-methylcyclohexyl)-3-(trifluoromethyl)benzamide] yielded an EC50 [2] of 0.51 µM.
`Cc1c(Cl)cccc1C(=O)N[C@H]1CCCc2ccccc21` [Example E13, (S)-3-chloro-2-methyl-N-(1,2,3,4-tetrahydronaphthalen-1-yl)benzamide] was tested, and the EC50 [2] was 2.91 µM.
`COc1cccc(C(=O)NC2CCCc3c(OC)cccc32)c1O` (stereo not shown) [Example E121, 2-hydroxy-3-methoxy-N-(5-methoxy-1,2,3,4-tetrahydronaphthalen-1-yl)benzamide] gave an EC50 [2] of 1.61 µM.
`COc1cc(C(=O)NC2CCCCC2C)cc(Cl)n1` (stereo not shown) [Example E40, 2-chloro-6-methoxy-N-(2-methylcyclohexyl)isonicotinamide] showed an EC50 [2] of 0.95 µM.
`Cc1cccc(C(=O)NC2CCCCC2C)c1Cl` (stereo not shown) [Example E57, 2-chloro-3-methyl-N-(2-methylcyclohexyl)benzamide] was tested, and the EC50 [2] was 1.95 µM.
Work on `COc1cccc2c1CCCC2NC(=O)c1cccc(C(C)C)c1O` (stereo not shown) [Example E124] yielded an EC50 [2] of 2.64 µM.
Molecule `CC1CCCCC1NC(=O)c1ccnc(Cl)c1` (stereo not shown) [Example E56, 2-chloro-N-(2-methylcyclohexyl)isonicotinamide] has an EC50 [2] of 1.92 µM.
Work on `Cc1c(F)c(F)c(C(=O)NC(C)C(C)(C)C)c(F)c1F` (stereo not shown) [Example E28, N-(3,3-dimethylbutan-2-yl)-2,3,5,6-tetrafluoro-4-methylbenzamide] yielded an EC50 [2] of 0.21 µM.
Work on `CCCc1c(F)c(F)c(C(=O)N[C@@H](C)C(C)C)c(F)c1F` [Example 192, (S)-2,3,5,6-tetrafluoro-N-(3-methylbutan-2-yl)-4-propylbenzamide] yielded an EC50 [1] of 0.14 µM.
`Cc1nocc1C(=O)N[C@@H]1CCCc2ccccc21` [Example E25, (R)-3-methyl-N-(1,2,3,4-tetrahydronaphthalen-1-yl)isoxazole-4-carboxamide] was tested, and the EC50 [2] was 7.79 µM.
With `CC(C)[C@H](C)NC(=O)c1c(F)c(F)c(-c2ccccc2)c(F)c1F` [Example E131, (S)-2,3,5,6-tetrafluoro-N-(3-methylbutan-2-yl)-4-phenyl benzamide] the EC50 [2] was 0.44 µM.
With `Cc1ccc2ccccc2c1C(=O)NC1CCCCC1C` (stereo not shown) [Example E52, 2-methyl-N-(2-methylcyclohexyl)-1-naphthamide] the EC50 [2] was 1.52 µM.
`CCOc1cccc2c1CCCC2NC(=O)c1conc1C` (stereo not shown) [Example 181] gave an EC50 [1] of 4.5 µM.
`Cc1cccc2c1CN(C(=O)Nc1c(F)cc(Br)cc1F)C2` [Example 193, N-(4-bromo-2,6-difluorophenyl)-4-methylisoindoline-2-carboxamide] showed an EC50 [1] of 0.02 µM.
Work on `COc1cccc2c1CCCC2NC(=O)c1conc1C` (stereo not shown) [Example E12, N-(5-methoxy-1,2,3,4-tetrahydronaphthalen-1-yl)-3-methylisoxazole-4-carboxamide] yielded an EC50 [2] of 2.85 µM.
`COc1c(Cl)ccc(Cl)c1C(=O)NC1CCCC(C)C1C` (stereo not shown) [Example E48, 3,6-dichloro-N-(2,3-dimethylcyclohexyl)-2-methoxybenzamide] gave an EC50 [2] of 1.29 µM.
With `CC1CCCCC1NC(=O)c1cccc(C(F)(F)F)c1F` (stereo not shown) [Example E61, 2-fluoro-N-(2-methylcyclohexyl)-3-(trifluoromethyl)benzamide] the EC50 [2] was 2.4 µM.
`O=C(N[C@@H]1CCCc2ccccc21)c1ccoc1` [Example 170, (R)-N-(1,2,3,4-tetrahydronaphthalen-1-yl)furan-3-carboxamide] gave an EC50 [1] of 6.6 µM.
Work on `Cc1c(F)c(F)c(C(=O)NC2CCCC2)c(F)c1F` [Example E58, N-cyclopentyl-2,3,5,6-tetrafluoro-4-methylbenzamide] yielded an EC50 [2] of 2.23 µM.
In the case of `CC1CCCCC1NC(=O)c1cc(F)cc(Cl)c1` (stereo not shown) [Example E30, 3-chloro-5-fluoro-N-(2-methylcyclohexyl)benzamide], the EC50 [2] is reported as 0.45 µM.
`Cc1c(F)c(F)c(C(=O)NC2CCCCCCC2)c(F)c1F` [Example E46, N-cyclooctyl-2,3,5,6-tetrafluoro-4-methylbenzamide] gave an EC50 [2] of 1.25 µM.
In the case of `CC1CCc2ccccc2C1NC(=O)c1cccc(Cl)c1O` (stereo not shown) [Example E1, 3-chloro-2-hydroxy-N-(2-methyl-1,2,3,4-tetrahydronaphthalen-1-yl)benzamide], the EC50 [2] is reported as 0.19 µM.
For `CCC(COC)NC(=O)c1ccc(C)cc1C` (stereo not shown) [Example E42, N-(1-methoxybutan-2-yl)-2,4-dimethylbenzamide], the EC50 [2] was 1.06 µM.
`CC1CCCCC1NC(=O)c1ccc(Cl)c(Cl)c1` (stereo not shown) [Example E54, 3,4-dichloro-N-(2-methylcyclohexyl)benzamide] gave an EC50 [2] of 1.83 µM.
Molecule `Cc1cc(Cl)ccc1NC(=O)N1Cc2cccc(C)c2C1` [Example E114, N-(4-chloro-2-methylphenyl)-4-methylisoindoline-2-carboxamide] has an EC50 [2] of 0.19 µM.
`COc1ccc(NC(=O)N2Cc3ccccc3C2)cc1` [Example E108, N-(4-methoxyphenyl)isomdoline-2-carboxamide] gave an EC50 [2] of 4.99 µM.
Work on `CCCc1nocc1C(=O)N[C@@H]1CCCc2c(OC)cccc21` [Example 188, (R)-3-Propyl-N-(5-methoxy-1,2,3,4-tetrahydronaphthalen-1-yl)isoxazole-4-carboxamide] yielded an EC50 [1] of 0.24 µM.
`CC1CCc2ccccc2C1NC(=O)c1ccccc1O` (stereo not shown) [Example E9, 2-hydroxy-N-(2-methyl-1,2,3,4-tetrahydronaphthalen-1-yl)benzamide] gave an EC50 [2] of 2.36 µM.
`Cc1c(F)c(F)c(C(=O)N[C@@H](C)C(C)(C)C)c(F)c1F` [Example E38, (S)-N-(3,3-dimethylbutan-2-yl)-2,3,5,6-tetrafluoro-4-methylbenzamide] gave an EC50 [2] of 0.9 µM.
`CSc1cc(C)c(C(=O)N[C@H](C)C(C)(C)C)c(C)c1` [Example 200, (R)-N-(3,3-dimethylbutan-2-yl)-2,6-dimethyl-4-(methylthio)benzamide] gave an EC50 [1] of 1.02 µM.
For `COc1c(Cl)ccc(Cl)c1C(=O)Nc1ccc(C)cc1C` [Example E97, 3,6-Dichloro-N-(2,4-dimethyl-phenyl)-2-methoxy-benzamide], the EC50 [2] was 4.25 µM.
`CC1CCc2ccccc2C1NC(=O)c1cccc(O)c1O` (stereo not shown) [Example E8, 2,3-dihydroxy-N-(2-methyl-1,2,3,4-tetrahydronaphthalen-1-yl)benzamide] gave an EC50 [2] of 1.98 µM.
In the case of `C/C=C/c1c(F)c(F)c(C(=O)N[C@@H](C)C(C)C)c(F)c1F` [Example E129, (S,E)-2,3,5,6-tetrafluoro-N-(3-methylbutan-2-yl)-4-(prop-1-enyl)benzamide], the EC50 [2] is reported as 0.41 µM.
Work on `Cc1ccc2c(c1)CN(C(=O)Nc1c(F)cc(Br)cc1F)C2` [Example 197, N-(4-Bromo-2,6-difluorophenyl)-5-methylisoindoline-2-carboxamide] yielded an EC50 [1] of 0.52 µM.
In the case of `CC1CCCC(NC(=O)c2cc(F)ccc2F)C1C` (stereo not shown) [Example E77, N-(2,3-dimethylcyclohexyl)-2,5-difluorobenzamide], the EC50 [2] is reported as 4.11 µM.
`COc1cc(F)c(NC(=O)N2Cc3cccc(C)c3C2)c(F)c1` [Example 195, N-(2,6-difluoro-4-methoxyphenyl)-4-methylisoindoline-2-carboxamide] was tested, and the EC50 [1] was 0.067 µM.
